This is an account of results in US4404217A, “3-Indolyl alkylene amino propanols and cardiovascular compositions thereof” (C. M. Industries, priority 1979, dated 1983).

T1 sequence (P10608 whole entry): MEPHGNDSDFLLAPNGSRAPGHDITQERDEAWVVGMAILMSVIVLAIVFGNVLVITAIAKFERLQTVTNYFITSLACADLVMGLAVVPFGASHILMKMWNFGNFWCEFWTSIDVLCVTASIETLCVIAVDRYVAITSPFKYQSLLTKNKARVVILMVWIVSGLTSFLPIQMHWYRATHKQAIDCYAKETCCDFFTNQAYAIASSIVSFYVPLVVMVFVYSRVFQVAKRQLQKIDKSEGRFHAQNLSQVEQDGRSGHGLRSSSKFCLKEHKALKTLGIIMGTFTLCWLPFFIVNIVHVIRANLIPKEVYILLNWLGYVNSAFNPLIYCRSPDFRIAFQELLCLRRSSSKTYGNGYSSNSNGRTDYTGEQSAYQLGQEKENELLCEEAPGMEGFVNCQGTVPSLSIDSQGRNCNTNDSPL
T5 sequence (P54833 whole entry): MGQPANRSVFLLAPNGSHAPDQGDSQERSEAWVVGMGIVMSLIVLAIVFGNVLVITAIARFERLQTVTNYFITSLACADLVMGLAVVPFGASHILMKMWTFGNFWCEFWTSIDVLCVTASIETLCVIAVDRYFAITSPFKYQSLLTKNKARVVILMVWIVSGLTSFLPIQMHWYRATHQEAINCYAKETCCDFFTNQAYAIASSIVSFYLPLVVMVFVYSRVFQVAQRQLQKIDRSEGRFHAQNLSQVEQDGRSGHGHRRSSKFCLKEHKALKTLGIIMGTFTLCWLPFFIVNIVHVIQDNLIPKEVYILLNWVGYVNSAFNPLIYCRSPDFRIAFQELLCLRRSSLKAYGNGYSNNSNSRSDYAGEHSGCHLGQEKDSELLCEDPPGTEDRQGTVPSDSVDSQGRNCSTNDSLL

The first test concerns the target T1, β2 receptors (Rattus norvegicus, UniProt P10608).
T1 construct: lungs of rats (β2 receptors); from tissue; host or cells: rat lung plasma membranes
Kind of test: Displacement of 3H dihydroalprenolol, plasmic membranes of lungs of rats.
Conditions: not given
Type of test: binding. As to the method: (§1) The binding tests are effected on suspensions of plasmic membranes coming from various organs. The suspensions of membranes are placed in incubation with the tritiated ligand and various concentrations of products to be tested. After incubation, each test is filtered on GFB(Whatman) filter, the filters are dried and introduced into counting flasks. The measurement of the radioactivity is assessed by scintillation in a liquid medium.
(§2) The tests were made on plasmic membranes of hearts of dogs (β1 receptor) and lungs of rats (β2 receptors), in the presence of ^3 H dihydroalprenolol 4×10^-9 M.
In the case of `CC(Cc1c[nH]c2ccccc12)NCC(O)COc1cccc2[nH]ccc12` (stereo not drawn) [compound 7874], a half-maximal response (EC50) required 8.2 nM.

As for `CC(Cc1c[nH]c2ccccc12)NCC(O)COc1ccccc1[N+](=O)[O-]` (stereo not drawn) [compound 7808], the EC50 was found to be 24 nM.

The molecule `CC(Cc1c[nH]c2ccccc12)NCC(O)COc1ccccc1C#N` (stereo not drawn) [compound 7824] came in with a 50% effective concentration (EC50) of 10 nM.

For the next test, the target named is T2, α2 receptor (Rattus norvegicus, UniProt P22909).
T2 construct: plasmic membranes of rat brains; from tissue; host or cells: rat brain plasma membranes
T2 sequence (P22909 1-465): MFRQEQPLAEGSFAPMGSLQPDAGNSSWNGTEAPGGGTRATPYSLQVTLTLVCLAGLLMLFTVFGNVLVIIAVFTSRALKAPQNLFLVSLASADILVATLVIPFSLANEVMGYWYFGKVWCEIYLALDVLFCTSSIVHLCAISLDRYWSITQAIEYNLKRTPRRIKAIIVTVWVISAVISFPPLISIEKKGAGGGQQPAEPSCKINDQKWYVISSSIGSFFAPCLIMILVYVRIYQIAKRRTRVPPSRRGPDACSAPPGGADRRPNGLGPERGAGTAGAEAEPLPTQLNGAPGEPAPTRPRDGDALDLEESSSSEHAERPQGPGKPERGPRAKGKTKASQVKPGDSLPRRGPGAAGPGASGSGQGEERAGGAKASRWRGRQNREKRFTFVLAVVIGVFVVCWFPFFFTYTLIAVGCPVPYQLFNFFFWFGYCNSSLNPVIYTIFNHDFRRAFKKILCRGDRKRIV
Kind of test: Displacement of 3H clonidine, plasmic membranes of rat brains. Type of test: binding.
Conditions: not given
As to the method: as §1
(§3) The tests were made on plasmic membranes of rat brains, in the presence of ^3 H clonidine 1.2×10^-9 M (α2 receptor) and of ^3 H WB4101 (N-[2-(2.6dimethoxyphenoxy)ethyl]1.4benzodioxane-2-methylamine), 0.2×10^-9 M (α1 receptor).
Consider `CC(Cc1c[nH]c2ccccc12)NCC(O)COc1cccc2[nH]ccc12` (stereo not drawn) [compound 7874], for which the concentration for a half-maximal effect (EC50) turned out to be 20 nM.

`CC(Cc1c[nH]c2ccccc12)NCC(O)COc1ccccc1[N+](=O)[O-]` (stereo not drawn) [compound 7808] displayed an EC50 of 25 nM.

Still in this test, the particulars now being: in vitro.
`CC(Cc1c[nH]c2ccccc12)NCC(O)COc1ccccc1[N+](=O)[O-]` (stereo not drawn) [compound 7808]: the “affinity for the receptor with clonidine (α2)” value is “no affinity”.

Turning to `CC(Cc1c[nH]c2ccccc12)NCC(O)COc1ccccc1C#N` (stereo not drawn) [compound 7824], the “affinity for the receptor with clonidine (α2)” value is on record as “no affinity”.

The target in the next test is T3, β adrenergic receptors (β1) (Canis lupus familiaris, UniProt P79148).
T3 construct: The dog is anaesthetized using sodium pentobarbital; from tissue; host or cells: whole anaesthetized dog (heart)
T3 sequence (P79148 whole entry): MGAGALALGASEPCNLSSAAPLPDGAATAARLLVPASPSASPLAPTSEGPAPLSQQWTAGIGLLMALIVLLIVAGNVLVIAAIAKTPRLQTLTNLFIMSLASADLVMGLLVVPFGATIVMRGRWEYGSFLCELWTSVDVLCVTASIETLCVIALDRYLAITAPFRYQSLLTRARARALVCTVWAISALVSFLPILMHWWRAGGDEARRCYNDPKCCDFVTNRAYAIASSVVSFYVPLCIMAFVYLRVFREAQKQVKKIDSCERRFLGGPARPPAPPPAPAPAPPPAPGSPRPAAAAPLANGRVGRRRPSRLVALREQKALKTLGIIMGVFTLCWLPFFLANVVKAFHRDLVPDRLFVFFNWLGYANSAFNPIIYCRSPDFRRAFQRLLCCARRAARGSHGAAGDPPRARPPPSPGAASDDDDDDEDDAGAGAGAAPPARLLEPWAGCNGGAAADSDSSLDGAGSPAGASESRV
Kind of test: Antagonism of the effects of isoprenaline, tachycardia (β1), anaesthetized dog, IV. The following applies: dog, IV; isoprenaline antagonism, β1 versus β2. Type of test: in vivo.
`CC(Cc1c[nH]c2ccccc12)NCC(O)COc1cccc2[nH]ccc12` (stereo not drawn) [compound 7874]: the “cardioselectivity β1 - β2” value was “β1 ≥ β2 (low cardioselectivity β1 ≥β2)”.

`CC(Cc1c[nH]c2ccccc12)NCC(O)COc1ccccc1[N+](=O)[O-]` (stereo not drawn) [compound 7808]: the “cardioselectivity β1 - β2” value was “β1 > β2 (cardioselectivity (β1 >β2))”.

For `CC(Cc1c[nH]c2ccccc12)NCC(O)COc1ccccc1C#N` (stereo not drawn) [compound 7824], the “cardioselectivity β1 - β2” value is “β1 ≥ β2 (low cardioselectivity β1 ≥β2)”.

Still in this test, the particulars now being: dog, iv, read-out: ID50 ISOPRENALINE β1.
In the case of `CC(Cc1c[nH]c2ccccc12)NCC(O)COc1cccc2[nH]ccc12` (stereo not drawn) [compound 7874], the ED50 came to 0.01 mg/kg.

As for `CC(Cc1c[nH]c2ccccc12)NCC(O)COc1ccccc1[N+](=O)[O-]` (stereo not drawn) [compound 7808], the ED50 is 0.3 mg/kg.

Consider `CC(Cc1c[nH]c2ccccc12)NCC(O)COc1ccccc1C#N` (stereo not drawn) [compound 7824], for which the ED50 amounted to 0.3 mg/kg.

The same test, now with this note: test with isoprenaline.
Regarding `CC(Cc1c[nH]c2ccccc12)NCC(O)COc1ccccc1[N+](=O)[O-]` (stereo not drawn) [compound 7808], the “cardioselective in vivo (selectively inhibit the cardiac receptors)” value was “cardioselective in vivo”.

The target in another test is T4, β1 receptor (Canis lupus familiaris, UniProt P79148).
T4 construct: plasmic membranes of hearts of dogs (β1 receptor); from tissue; host or cells: dog heart plasma membranes
T4 sequence (P79148 whole entry): as above
Description: Displacement of 3H dihydroalprenolol, plasmic membranes of hearts of dogs. The format is binding, dog.
Conditions: not given
As to the method:
as §1, §2
The molecule `CC(Cc1c[nH]c2ccccc12)NCC(O)COc1cccc2[nH]ccc12` (stereo not drawn) [compound 7874] gave a concentration for a half-maximal effect (EC50) of 4 nM.

`CC(Cc1c[nH]c2ccccc12)NCC(O)COc1ccccc1[N+](=O)[O-]` (stereo not drawn) [compound 7808] showed a 50% effective concentration (EC50) of 28.5 nM.

Take `CC(Cc1c[nH]c2ccccc12)NCC(O)COc1ccccc1C#N` (stereo not drawn) [compound 7824]: the EC50 was determined as 13.5 nM.

In a further test the test system is platelet aggregation. Kind of test: Anti-aggregating activity, BORN technique, plasma rich in platelets, ADP. Type of test: cell-based, human. The following applies: Homo sapiens, Platelet, read-out: concentration for inhibiting by 50% the maximum rate of aggregation. As to the method:
The anti-aggregating activity of the CM 7743, 7744, 7824, 7854, 7859 and 7874 has been studied according to the BORN technique on plasma rich in platelets of human origin. ADP has been used as indicator of platelet aggregation. […] The required concentration for inhibiting by 50% the maximum rate of aggregation varies from 45 to 100 μM.
As for `CC(Cc1c[nH]c2ccccc12)NCC(O)COc1cccc2[nH]ccc12` (stereo not drawn) [compound 7874], the IC50 is 45000 to 100000 nM.

For the molecule `CC(Cc1c[nH]c2ccccc12)NCC(O)COc1ccccc1C#N` (stereo not drawn) [compound 7824], the IC50 fell in the range of 45000 to 100000 nM.

The test is the same for the next values; noted with them: human platelet-rich plasma.
For the molecule `CC(Cc1c[nH]c2ccccc12)NCC(O)COc1cccc2[nH]ccc12` (stereo not drawn) [compound 7874], the “inhibition of the platelet response with respect to the ADP” value is on record as “inhibited the platelet response”.

Turning to `CC(Cc1c[nH]c2ccccc12)NCC(O)COc1ccccc1C#N` (stereo not drawn) [compound 7824], the “inhibition of the platelet response with respect to the ADP” value is listed as “inhibited the platelet response”.

The next test addresses T5, β adrenergic receptors (β2) (Canis lupus familiaris, UniProt P54833).
T5 construct: The dog is anaesthetized using sodium pentobarbital; from tissue; host or cells: whole anaesthetized dog (vasculature)
Description: Antagonism of the effects of isoprenaline, hypotension (β2), anaesthetized dog, IV. The format is in vivo. The note with it: IV, 50% inhibition of isoprenaline hypotension, read-out: ID50 ISOPRENALINE β2. As to the method:
(§4) The dog is anaesthetized using sodium pentobarbital, administered by the IV route at a dose of 30 mg/kg. A cannula placed in the saphenous vein allows the intra-venous injections of the products. The animal is submitted to intubation and is allowed to breathe spontaneously.
(§5) The cardiac frequency and the systemic arterial pressure are studied and the variations of these parameters are observed after intra-venous injection of the product to be tested. Each product is tested with increasing doses.
The antagonism of the products with respect to the β stimulant cardio-vascular effects of isoprenaline on the β adrenergic receptors has been sought. […] The last column indicates the cardioselectivity (β1 >β2) or a low cardioselectivity β1 ≥β2, or no cardioselectivity β1 <β2 and β1 =β2.
With `CC(Cc1c[nH]c2ccccc12)NCC(O)COc1cccc2[nH]ccc12` (stereo not drawn) [compound 7874], the ED50 is 0.01 to 0.03 mg/kg.

The same test, now with this note: iv, read-out: ID50 ISOPRENALINE β2.
Consider `CC(Cc1c[nH]c2ccccc12)NCC(O)COc1ccccc1[N+](=O)[O-]` (stereo not drawn) [compound 7808], for which the ED50 worked out at 1 mg/kg.

Regarding `CC(Cc1c[nH]c2ccccc12)NCC(O)COc1ccccc1C#N` (stereo not drawn) [compound 7824], the ED50 is no less than 0.3 mg/kg.

Test system in the next test: not listed separately
Description: Cardiac frequency and arterial pressure in the anaesthetized dog after intravenous injection. The format is in vivo. The following applies: i.v. route, anaesthetised dog. The protocol: as §4, §5
As for `CC(Cc1c[nH]c2ccccc12)NCC(O)COc1cccc2[nH]ccc12` (stereo not drawn) [compound 7874], the “reduction in the peripheral arterial pressure” value (“reduction” below) was “reduction in the peripheral arterial pressure”.

Regarding `CC(Cc1c[nH]c2ccccc12)NCC(O)COc1ccccc1[N+](=O)[O-]` (stereo not drawn) [compound 7808], the “reduction” value is on record as “reduction in the peripheral arterial pressure”.

In the case of `CC(Cc1c[nH]c2ccccc12)NCC(O)COc1ccccc1C#N` (stereo not drawn) [compound 7824], the “reduction” value is “reduction in the peripheral arterial pressure”.

A further test relates to α1 receptor. Description: Displacement of 3H WB 4101, plasmic membranes of rat brains. The format is binding. The note with it: in vitro. The protocol: as §1, §3
For `CC(Cc1c[nH]c2ccccc12)NCC(O)COc1cccc2[nH]ccc12` (stereo not drawn) [compound 7874], the “affinity for the receptor with WB 4101 (α1)” value (“affinity … (α1)” for short) is “have an affinity”.

With `CC(Cc1c[nH]c2ccccc12)NCC(O)COc1ccccc1[N+](=O)[O-]` (stereo not drawn) [compound 7808], the “affinity … (α1)” value is given as “have an affinity”.

For the molecule `CC(Cc1c[nH]c2ccccc12)NCC(O)COc1ccccc1C#N` (stereo not drawn) [compound 7824], the “affinity … (α1)” value was “have an affinity”.

Still in this test, the particulars now being: read-out: EC50 of DISPLACEMENT of 3H WB 4101; rat brain membranes; 3H WB4101 0.2×10^-9 M.
For `CC(Cc1c[nH]c2ccccc12)NCC(O)COc1cccc2[nH]ccc12` (stereo not drawn) [compound 7874], the EC50 came to 215 nM.

As to `CC(Cc1c[nH]c2ccccc12)NCC(O)COc1ccccc1[N+](=O)[O-]` (stereo not drawn) [compound 7808], the EC50 worked out at 320 nM.

Regarding `CC(Cc1c[nH]c2ccccc12)NCC(O)COc1ccccc1C#N` (stereo not drawn) [compound 7824], the EC50 was 110 nM.

The next test relates to α adrenergic receptors. Kind of test: Antagonism of the effects of noradrenaline (pressure response), anaesthetized dog, IV. The format is in vivo. The following applies: 50% inhibition of pressure response to noradrenaline. As to the method:
as §4, §5
The antagonism of the products with respect to the vascular effects provoked by the IV administration of noradrenaline on the α adrenergic receptors has been sought. The results presented in Table III are expressed in ID50 : it is the dose (mg/kg) which provokes the inhibition by 50% of the pressure response due to the IV administration of noradrenaline.
With `CC(Cc1c[nH]c2ccccc12)NCC(O)COc1cccc2[nH]ccc12` (stereo not drawn) [compound 7874], the “ID50 NORADRENALINE α” value was greater than 0.03 mg/kg.

Turning to `CC(Cc1c[nH]c2ccccc12)NCC(O)COc1ccccc1[N+](=O)[O-]` (stereo not drawn) [compound 7808], the “ID50 NORADRENALINE α” value is given as 0.3 mg/kg.

For the molecule `CC(Cc1c[nH]c2ccccc12)NCC(O)COc1ccccc1C#N` (stereo not drawn) [compound 7824], the “ID50 NORADRENALINE α” value is recorded as 1 mg/kg.
